Results reported in patent US20240384268A1, “Oligonucleotides” (Hudson Institute of Medical Research, priority 2021, published 2024).
In the oligonucleotide strings, read from the 5' end, every base follows the letter of its sugar. An asterisk marks phosphorothioate; unmarked linkages are phosphodiester. Other units and linkages are bracketed, terminal groups are in braces. A string of capitals states the bases alone. d = 2'-deoxy (DNA); m = 2'-O-methyl

Tests used:
TLR7 = molecular target: T1, TLR7 (Mus musculus, UniProt P58681); experiment: Guanosine-induced TNFα in primary BMDMs; format: cell-based; design: endogenous in cells; host or cells: primary BMDMs from wild-type mice; conditions: WT primary BMDMs; 200 nM ASO 30 min; 500 μM Guanosine overnight
T1 sequence (P58681 27-1050): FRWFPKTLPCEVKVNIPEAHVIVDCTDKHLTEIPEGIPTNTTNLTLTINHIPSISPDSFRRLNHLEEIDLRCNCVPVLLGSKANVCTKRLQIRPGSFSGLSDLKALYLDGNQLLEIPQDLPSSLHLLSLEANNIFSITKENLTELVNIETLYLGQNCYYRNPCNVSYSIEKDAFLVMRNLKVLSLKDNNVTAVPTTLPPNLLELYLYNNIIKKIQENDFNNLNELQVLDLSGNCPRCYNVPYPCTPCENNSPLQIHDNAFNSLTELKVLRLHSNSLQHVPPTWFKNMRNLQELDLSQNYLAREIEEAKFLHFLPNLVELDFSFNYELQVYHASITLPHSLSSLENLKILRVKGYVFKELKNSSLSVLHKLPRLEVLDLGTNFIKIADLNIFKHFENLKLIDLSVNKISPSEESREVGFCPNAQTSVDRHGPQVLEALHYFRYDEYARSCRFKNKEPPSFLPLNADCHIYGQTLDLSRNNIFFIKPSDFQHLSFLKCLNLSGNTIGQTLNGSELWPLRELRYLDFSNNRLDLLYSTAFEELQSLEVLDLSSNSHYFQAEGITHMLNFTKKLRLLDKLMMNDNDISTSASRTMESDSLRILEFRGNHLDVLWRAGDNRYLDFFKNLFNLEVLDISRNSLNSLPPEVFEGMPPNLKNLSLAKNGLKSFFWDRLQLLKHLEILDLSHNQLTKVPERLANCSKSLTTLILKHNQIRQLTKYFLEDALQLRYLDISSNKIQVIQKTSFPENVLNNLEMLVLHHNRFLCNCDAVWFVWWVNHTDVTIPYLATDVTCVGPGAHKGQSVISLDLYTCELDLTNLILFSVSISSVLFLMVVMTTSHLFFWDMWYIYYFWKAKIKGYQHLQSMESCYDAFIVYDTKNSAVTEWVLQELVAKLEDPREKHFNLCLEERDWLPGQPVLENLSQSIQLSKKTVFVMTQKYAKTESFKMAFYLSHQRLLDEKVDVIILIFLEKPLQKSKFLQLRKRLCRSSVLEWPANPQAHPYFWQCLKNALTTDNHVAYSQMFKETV

TLR8 = molecular target: T2, TLR8 (Homo sapiens, UniProt Q9NR97); experiment: R848-driven IP-10 production in THP-1 cells (TLR8); format: cell-based; design: expressed in transfected cells; dose or concentration left out as unconfirmed; conditions: R848 7 h; for TLR8 potentiation in THP-1, short 2′OMe oligos (IP-10; in words): oligos overnight; for effect of 3-mer 2′OMe oligos on R848-driven IP-10 in THP-1 (in words): 3-mer oligos overnight
T2 sequence (Q9NR97 27-1041): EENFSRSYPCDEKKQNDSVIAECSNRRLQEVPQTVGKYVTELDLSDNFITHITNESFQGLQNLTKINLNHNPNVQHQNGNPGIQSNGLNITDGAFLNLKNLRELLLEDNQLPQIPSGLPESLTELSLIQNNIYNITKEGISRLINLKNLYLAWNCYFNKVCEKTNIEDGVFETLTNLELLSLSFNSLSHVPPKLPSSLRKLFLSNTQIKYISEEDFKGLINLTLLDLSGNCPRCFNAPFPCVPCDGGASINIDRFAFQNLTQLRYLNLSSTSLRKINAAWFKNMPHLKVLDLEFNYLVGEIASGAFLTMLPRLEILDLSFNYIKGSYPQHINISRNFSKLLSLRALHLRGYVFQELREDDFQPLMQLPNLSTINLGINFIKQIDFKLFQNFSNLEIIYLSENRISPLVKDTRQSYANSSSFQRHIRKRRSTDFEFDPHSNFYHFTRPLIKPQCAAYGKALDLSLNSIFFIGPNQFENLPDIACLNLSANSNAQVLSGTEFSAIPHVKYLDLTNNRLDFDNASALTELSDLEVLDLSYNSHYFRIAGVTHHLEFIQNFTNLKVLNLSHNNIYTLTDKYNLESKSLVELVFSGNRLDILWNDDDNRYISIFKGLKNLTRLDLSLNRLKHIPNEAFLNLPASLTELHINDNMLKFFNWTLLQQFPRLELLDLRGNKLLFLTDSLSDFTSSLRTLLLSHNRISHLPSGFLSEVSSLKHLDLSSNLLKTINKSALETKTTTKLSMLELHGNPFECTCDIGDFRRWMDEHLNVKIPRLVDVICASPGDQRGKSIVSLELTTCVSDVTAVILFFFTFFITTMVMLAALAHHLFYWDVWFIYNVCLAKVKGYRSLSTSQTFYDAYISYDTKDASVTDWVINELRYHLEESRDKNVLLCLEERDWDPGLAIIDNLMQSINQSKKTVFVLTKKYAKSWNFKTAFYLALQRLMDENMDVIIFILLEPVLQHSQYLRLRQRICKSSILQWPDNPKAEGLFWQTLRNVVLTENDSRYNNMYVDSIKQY
Procedure: FIG. 34: THP-1 cells were pre-treated overnight with […] ASOs, prior to R848 stimulation for 7h. […] All ASO conditions are with R848 co-stimulation.
FIG. 35: THP-1 cells were pre-treated overnight with indicated concentrations of ASOs, prior to R848 stimulation for 7h. […] All ASO conditions are with R848 co-stimulation. SEM and two-way ANOVA with Tukey's multiple comparisons to 660-3b condition are shown.
FIG. 36: A, B, C) HEK-TLR8 cells expressing an NF-κB-luciferase reporter were pre-treated 40 min with […] oligos, prior to Motolimod stimulation (400 nM [B] or 600 nM [A and C] overnight). Data shown are averaged from 2 (B) independent or a single experiment (A and C), completed with 3 biological triplicate. The NF-κB-luciferase values are reported to the Motolimod condition. D) THP-1 cells were pre-treated overnight with […] 3-mer oligos, prior to R848 stimulation ([…]) for 7h. IP-10 levels were measured by ELISA. Data shown are averaged from a single experiment completed with 3 biological triplicate, reported to the R848 only condition. A-E) All oligo conditions are with Motolimod or R848 co-stimulation.
Human IP-10 and IFN-β levels were measured using supernatants from the different cultures and were quantified using IP-10 (BD Biosciences, #550926) or IFN-β (PBL assay science, #41415-1) ELISA kits respectively, according to the manufacturers' protocol. Tetramethylbenzidine substrate (Thermo Fisher Scientific) was used for quantification of the cytokines on a Fluostar OPTIMA (BMG LABTECH) plate-reader.

In the case of “mC*mG*mU*T*T*C*C*C*C*C*C*C*C*C*C*C*C*C*C*C (CGUTTCCCCCCCCCCCCCCC; antisense; sugars from the 5' end m3 d17, all phosphorothioate, methylation of C not given here) [[C2]Mut1-v3-dC]”, the “TNFα production induced by guanosine (in words)” value (“TNFα production induced” below) (TLR7) is reported as “did not”.

mCmUmU (antisense mC*mU*mU) [660-3] was tested, and the “TLR8 potentiation in THP-1, short 2′OMe oligos (IP-10; in words)” value (shortened to “TLR8 potentiation”) (TLR8) was “did not work” and the “TLR8 potentiation” value (TLR8; listed as CUU) was “did not potentiate TLR8”.

“mG*mC*mG*mG*mU*A*T*C*C*A*T*G*T*C*C*mC*mA*mG*mG*mC (mG*mC*mG*mG*mU*dA*dT*dC*dC*dA*dT*dG*dT*dC*dC*mC*mA*mG*mG*mC; antisense) [C2-Mut1]” was tested, and the “TNFα production induced” value (TLR7) was “significantly inhibiting TNFα levels”.

With “mG*mG*mU*A*T*C*C*C*C*C*C*C*C*C*C*C*C*C*C*C (GGUATCCCCCCCCCCCCCCC; antisense; sugars from the 5' end m3 d17, all phosphorothioate, methylation of C not given here) [[C2]Mut1-dC]” the “TNFα production induced” value (TLR7) was “significantly inhibiting TNFα levels”.

In the case of “mGmAmU (mG*mA*mU) [GAU, 3-mer 2′OMe PS oligo]”, the “effect of 3-mer 2′OMe oligos on R848-driven IP-10 in THP-1 (in words)” value (“effect of 3-mer 2′OMe oligos” for short) (TLR8) is reported as “robustly the most potent”.

In the case of “mGmUmA (GUA; all 2'-O-methyl, backbone not given here; further chemistry not fully specified) [shortMut1-3b]”, the “effect of 3-mer 2′OMe oligos” value (TLR8) is reported as “robustly inhibitory”.

“mGmUmC (mG*mU*mC) [GUC, 3-mer 2′OMe PS oligo]” was tested, and the “effect of 3-mer 2′OMe oligos” value (TLR8) was “robustly inhibitory”.

For “mGmUmG (mG*mU*mG) [GUG, 3-mer 2′OMe PS oligo]”, the “effect of 3-mer 2′OMe oligos” value (TLR8) was “robustly inhibitory”.

For “mGmUmU (mG*mU*mU) [GUU, 3-mer 2′OMe PS oligo]”, the “effect of 3-mer 2′OMe oligos” value (TLR8) was “robustly inhibitory”.

In the case of mUmCmG (antisense mU*mC*mG) [660-3b], the “TLR8 potentiation” value (TLR8) is reported as “significantly potentiated TLR8 sensing”.
